Test system: Staphylococcus aureus NCTC 8325-4
Test: Growth in LB broth flask culture with or without calcium chloride supplementation (visual growth, terminal plate count)
Assay type: cell-based
Conditions: for critical limit in combination with 0.5% calcium chloride: procedures as for Table 8
Description: The test organism is Staphylococcus aureus NCTC 8325-4 as described in the methods and flask cultures are 100 ml of Luria-Bertani broth (LB broth) in 250 ml Erlenmeyer flasks. LB broth is used instead of brain Heart Infusion because it is more defined and limited in mineral content.
A standard inoculum is grown as described in the methods section and adjusted to a viable cell count of […] by dilution in sterile saline, 0.1 ml of this is used to aseptically inoculate 100 ml volumes of test media—the inoculum being […] in the test flask.
To determine the Minimum Inhibitory effect of hexametaphosphate a series of flasks with 100 ml of LB broth were each supplemented with concentrations of hexametaphosphate ranging from 0% W/W to 1% W/W, each flask was inoculated with a standard inoculum to achieve 1×10^3 viable bacterial in the flask, the flasks were incubated at 37° C. in a rotary incubator for 24 hours and evaluated visually for growth at that time.
Following visual evaluation, 0.5% sterile calcium chloride was added to all flasks and incubation continued for a further 24 hours.

`O=P1([O-])OP(=O)([O-])OP(=O)([O-])OP(=O)([O-])OP(=O)([O-])OP(=O)([O-])O1.[Na+].[Na+].[Na+].[Na+].[Na+].[Na+]` [SHMP, sodium hexametaphosphate] was tested, and the “24 H CFU/ml” value (0.27% SHMP, LB broth) was ~2 × 10^2 CFU/ml, the residual viability (0.27% hexametaphosphate, 24 hours) was 2×10^2 and the “concentrations that remained inhibited post addition of calcium chloride” value (0.5% calcium chloride) was “at least 0.5%”. The “concentrations with full growth 24 hours post addition of calcium chloride” value (0.5% calcium chloride) was at most 0.27%, the “effect on microbial growth under conditions of excess calcium” value (0.5% calcium chloride, 0.27% SHMP, 0.375% functional emulsion) was “no inhibitory effect on microbial growth” and the “concentrations at which growth was apparently inhibited” value (LB broth, 24 hours, no calcium supplementation) was at least 0.05%.

`O=P([O-])([O-])O[C@H]1[C@H](OP(=O)([O-])O)[C@H](OP(=O)([O-])[O-])[C@H](OP(=O)([O-])O)[C@@H](OP(=O)([O-])[O-])[C@@H]1OP(=O)([O-])O.[Na+].[Na+].[Na+].[Na+].[Na+].[Na+].[Na+].[Na+].[Na+]` [sodium phytate] was tested, and the “critical limit in combination with 0.5% calcium chloride” value was 0.2%.

For `O=c1ccn([C@@H]2O[C@H](COP(=O)(O)O)[C@@H](O)[C@H]2O)c(=O)[nH]1` [Uridine monophosphate], the “critical limit in combination with 0.5% calcium chloride” value was “inconclusive”.

With `O=P([O-])([O-])O.[Na+].[Na+]` [di-sodium orthophosphate] the “critical limit in combination with 0.5% calcium chloride” value was 0.75%.

For `O=C([O-])CC(O)(CC(=O)[O-])C(=O)[O-].[Na+].[Na+].[Na+]` [tri-sodium citrate], the “critical limit in combination with 0.5% calcium chloride” value was 0.5%.

For `[Ca+2].[Cl-].[Cl-]` [Calcium, calcium chloride], the “24 H CFU/ml” value (0.5% Calcium, LB broth) was >10^9 CFU/ml and the effect on growth (0.5% calcium chloride supplement alone) was “no effect on growth”.
